Test results taken from patent US20220062279A1, “TREATMENT OF MOVEMENT DISORDERS” (Contera Pharma A/S, priority 2018, published 2022).

Legend:
[1] = test system: LID; conditions: cited from earlier work
[2] = test system: locomotor activity; test: Open field test; conditions: buspirone 0.1-30 mg/kg i.p., pentobarbital 15 mg/kg i.p.; 60 minutes observation period; compared to vehicle
[3] = test system: rats' motor performance and coordination; test: Rotarod test; conditions: buspirone 0.1-30 mg/kg i.p., pentobarbital 15 mg/kg i.p., 5 or 30 min before test; compared to vehicle
[4] = test system: Parkinson's disease; conditions: cited from earlier work
[5] = test system: unilaterally 6-OHDA-lesioned rats; test: L-DOPA induced AIMs test in the 6-OHDA rat model; type: in vivo; conditions: previously shown by the applicant

Row | SMILES | effects compared to placebo ([1]; phase 2b and 3 studies) | LID ([1]; pre-clinical and clinical studies) | Open field performance (locomotor activity) [2] | Rotarod performance (time spent on the accelerating rod) [3] | disability ratings ([4]; 100 mg/day) | dyskinesia ([4]; 100 mg/day) | effects on Parkinson's disease or dyskinesia ([4]; 10-60 mg/day) | L-DOPA-induced involuntary movements [5]
1 | Fc1ccc(-c2cncc(CNC[C@H]3CCc4ccccc4O3)c2)cc1 [sarizotan, 1-[(2R)-3,4-dihydro-2H-chromen-2-yl]-N-([5-(4-fluorophenyl)pyridin-3-yl]methyl)methanamine] | no significant effects | reduced LID |  |  |  |  |  | 
2 | O=C1CC2(CCCC2)CC(=O)N1CCCCN1CCN(c2ncccn2)CC1 [buspirone, 8-[4-(4-pyrimidin-2-ylpiperazin-1-yl)butyl]-8-azaspiro[4.5]decane-7,9-dione] |  |  | dose dependently is able to affect performance in the open field test | affect performance in the rotarod model in a dose dependent manner | significant worsening of disability ratings | reduced dyskinesia | did not have any effects on Parkinson's disease or dyskinesia | dose dependently reduce L-DOPA-induced involuntary movements
3 | CCCC(C)C1(CC)C(=O)NC(=O)NC1=O (stereo not shown) [Pentobarbital] |  |  | significantly reduced motor performance | significantly reduces time spent on the rotarod |  |  |  | 
